Source: paper PMC5041959, “A high-content EMT screen identifies multiple receptor tyrosine kinase inhibitors with activity on TGFβ receptor” (Oncotarget, 2016)
Where two headings read alike, the source gives them in different places.

Legend:
NMuMG cells = test: High-content microscopy EMT screen in TGFβ-treated NMuMG cells (FA, SF, FN, cell count); type: cell-based, murine; settings: for Emax (maximal effect on cell count): compared to reference 10 μM SB-431542 = 100%; for Emax: read-out: Emax (maximal effect on cell count)
TGFBR2 = TGFBR2 (Homo sapiens, UniProt P37173); test: Biochemical kinase profiling (33PanQinase radiometric assay); settings: read-out: TGFBR2 IC50; ATP at apparent Km
Sequence of TGFBR2 (P37173 23-567): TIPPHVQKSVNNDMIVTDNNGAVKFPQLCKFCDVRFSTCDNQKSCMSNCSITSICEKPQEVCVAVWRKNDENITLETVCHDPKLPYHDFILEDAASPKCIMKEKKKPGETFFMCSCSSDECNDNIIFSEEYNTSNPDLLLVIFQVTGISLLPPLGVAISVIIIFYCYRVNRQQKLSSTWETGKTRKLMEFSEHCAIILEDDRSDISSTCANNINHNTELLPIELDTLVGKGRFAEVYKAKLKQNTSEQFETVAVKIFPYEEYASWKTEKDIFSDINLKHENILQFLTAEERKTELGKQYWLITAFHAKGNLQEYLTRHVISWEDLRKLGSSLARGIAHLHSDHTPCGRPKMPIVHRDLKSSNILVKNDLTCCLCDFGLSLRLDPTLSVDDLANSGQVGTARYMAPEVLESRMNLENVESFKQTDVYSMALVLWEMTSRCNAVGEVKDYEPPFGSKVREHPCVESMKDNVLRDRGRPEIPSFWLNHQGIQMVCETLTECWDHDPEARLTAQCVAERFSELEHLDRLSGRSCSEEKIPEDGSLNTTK

TGFBR1 = molecular target: T1, TGFBR1 (Homo sapiens, UniProt P36897); test: as above; settings: read-out: TGFBR1 IC50; ATP at apparent Km
T1 sequence (P36897 34-503): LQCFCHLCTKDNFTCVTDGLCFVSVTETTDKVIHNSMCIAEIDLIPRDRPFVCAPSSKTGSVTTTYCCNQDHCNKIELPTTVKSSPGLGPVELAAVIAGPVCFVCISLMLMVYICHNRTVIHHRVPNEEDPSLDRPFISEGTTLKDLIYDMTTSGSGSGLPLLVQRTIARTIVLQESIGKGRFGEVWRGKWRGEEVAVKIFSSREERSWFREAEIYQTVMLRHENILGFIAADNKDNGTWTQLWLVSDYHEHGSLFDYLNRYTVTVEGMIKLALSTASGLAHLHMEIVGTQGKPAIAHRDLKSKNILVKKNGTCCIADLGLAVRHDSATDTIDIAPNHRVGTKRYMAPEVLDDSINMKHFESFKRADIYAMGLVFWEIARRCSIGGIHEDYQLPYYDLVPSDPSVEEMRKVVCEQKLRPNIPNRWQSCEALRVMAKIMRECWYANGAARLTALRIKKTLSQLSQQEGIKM

FGFR2 = FGFR2 (Homo sapiens, UniProt P21802); test: as above; settings: read-out: FGFR2 IC50; ATP at apparent Km
Sequence of FGFR2 (P21802 22-821): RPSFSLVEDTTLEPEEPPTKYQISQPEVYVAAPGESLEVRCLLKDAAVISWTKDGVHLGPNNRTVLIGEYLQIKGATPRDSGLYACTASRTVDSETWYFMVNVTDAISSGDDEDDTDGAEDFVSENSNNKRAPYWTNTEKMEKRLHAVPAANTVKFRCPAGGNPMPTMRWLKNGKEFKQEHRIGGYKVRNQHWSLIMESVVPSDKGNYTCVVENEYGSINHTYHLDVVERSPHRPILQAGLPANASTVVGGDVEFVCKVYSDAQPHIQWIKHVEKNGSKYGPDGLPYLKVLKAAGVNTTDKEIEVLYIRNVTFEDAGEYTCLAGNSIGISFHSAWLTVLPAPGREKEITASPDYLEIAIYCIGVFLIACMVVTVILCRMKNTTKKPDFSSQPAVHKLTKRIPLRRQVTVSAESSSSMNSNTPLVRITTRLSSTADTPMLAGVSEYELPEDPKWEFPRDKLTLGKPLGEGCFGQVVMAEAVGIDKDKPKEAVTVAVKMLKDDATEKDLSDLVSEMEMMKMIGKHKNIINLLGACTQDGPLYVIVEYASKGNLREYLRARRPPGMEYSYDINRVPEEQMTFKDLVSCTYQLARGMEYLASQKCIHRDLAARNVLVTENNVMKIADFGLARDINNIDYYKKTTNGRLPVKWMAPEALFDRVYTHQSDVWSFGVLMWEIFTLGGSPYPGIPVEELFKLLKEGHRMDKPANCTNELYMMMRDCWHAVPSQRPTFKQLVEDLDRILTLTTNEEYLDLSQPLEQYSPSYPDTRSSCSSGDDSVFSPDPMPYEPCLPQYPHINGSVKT

PDGFRA = PDGFRA (Homo sapiens, UniProt P16234); test: as above; settings: read-out: PDGFRA IC50; ATP at apparent Km
Sequence of PDGFRA (P16234 24-1089): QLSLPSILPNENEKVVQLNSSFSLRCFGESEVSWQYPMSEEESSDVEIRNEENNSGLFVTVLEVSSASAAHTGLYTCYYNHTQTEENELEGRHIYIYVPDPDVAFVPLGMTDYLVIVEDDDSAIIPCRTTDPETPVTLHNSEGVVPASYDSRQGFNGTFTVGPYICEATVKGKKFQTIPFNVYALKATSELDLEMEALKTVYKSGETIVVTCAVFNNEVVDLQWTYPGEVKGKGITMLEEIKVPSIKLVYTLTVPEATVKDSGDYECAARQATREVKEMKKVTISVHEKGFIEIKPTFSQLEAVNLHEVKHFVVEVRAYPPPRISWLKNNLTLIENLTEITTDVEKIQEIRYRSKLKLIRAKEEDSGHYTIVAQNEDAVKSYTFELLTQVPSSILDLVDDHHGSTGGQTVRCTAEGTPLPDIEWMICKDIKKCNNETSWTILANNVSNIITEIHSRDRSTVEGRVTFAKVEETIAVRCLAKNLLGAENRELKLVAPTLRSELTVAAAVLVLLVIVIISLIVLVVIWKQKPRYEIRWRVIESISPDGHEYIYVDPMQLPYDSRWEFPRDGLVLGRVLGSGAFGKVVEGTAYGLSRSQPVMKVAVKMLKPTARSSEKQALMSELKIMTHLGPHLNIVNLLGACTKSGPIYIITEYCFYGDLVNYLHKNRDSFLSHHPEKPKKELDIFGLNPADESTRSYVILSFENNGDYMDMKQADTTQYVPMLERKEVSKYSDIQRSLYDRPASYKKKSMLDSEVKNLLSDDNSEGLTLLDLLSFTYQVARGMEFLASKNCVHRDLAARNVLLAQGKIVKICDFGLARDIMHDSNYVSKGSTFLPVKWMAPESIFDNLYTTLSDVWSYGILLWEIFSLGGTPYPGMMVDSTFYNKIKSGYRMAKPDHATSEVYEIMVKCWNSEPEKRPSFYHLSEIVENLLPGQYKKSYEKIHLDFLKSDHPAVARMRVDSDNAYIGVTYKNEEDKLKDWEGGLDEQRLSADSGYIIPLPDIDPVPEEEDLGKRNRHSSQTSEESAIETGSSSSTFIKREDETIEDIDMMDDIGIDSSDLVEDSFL

PDGFRB = PDGFRB (Homo sapiens, UniProt P09619); test: as above; settings: read-out: PDGFRB IC50; ATP at apparent Km
Sequence of PDGFRB (P09619 33-1106): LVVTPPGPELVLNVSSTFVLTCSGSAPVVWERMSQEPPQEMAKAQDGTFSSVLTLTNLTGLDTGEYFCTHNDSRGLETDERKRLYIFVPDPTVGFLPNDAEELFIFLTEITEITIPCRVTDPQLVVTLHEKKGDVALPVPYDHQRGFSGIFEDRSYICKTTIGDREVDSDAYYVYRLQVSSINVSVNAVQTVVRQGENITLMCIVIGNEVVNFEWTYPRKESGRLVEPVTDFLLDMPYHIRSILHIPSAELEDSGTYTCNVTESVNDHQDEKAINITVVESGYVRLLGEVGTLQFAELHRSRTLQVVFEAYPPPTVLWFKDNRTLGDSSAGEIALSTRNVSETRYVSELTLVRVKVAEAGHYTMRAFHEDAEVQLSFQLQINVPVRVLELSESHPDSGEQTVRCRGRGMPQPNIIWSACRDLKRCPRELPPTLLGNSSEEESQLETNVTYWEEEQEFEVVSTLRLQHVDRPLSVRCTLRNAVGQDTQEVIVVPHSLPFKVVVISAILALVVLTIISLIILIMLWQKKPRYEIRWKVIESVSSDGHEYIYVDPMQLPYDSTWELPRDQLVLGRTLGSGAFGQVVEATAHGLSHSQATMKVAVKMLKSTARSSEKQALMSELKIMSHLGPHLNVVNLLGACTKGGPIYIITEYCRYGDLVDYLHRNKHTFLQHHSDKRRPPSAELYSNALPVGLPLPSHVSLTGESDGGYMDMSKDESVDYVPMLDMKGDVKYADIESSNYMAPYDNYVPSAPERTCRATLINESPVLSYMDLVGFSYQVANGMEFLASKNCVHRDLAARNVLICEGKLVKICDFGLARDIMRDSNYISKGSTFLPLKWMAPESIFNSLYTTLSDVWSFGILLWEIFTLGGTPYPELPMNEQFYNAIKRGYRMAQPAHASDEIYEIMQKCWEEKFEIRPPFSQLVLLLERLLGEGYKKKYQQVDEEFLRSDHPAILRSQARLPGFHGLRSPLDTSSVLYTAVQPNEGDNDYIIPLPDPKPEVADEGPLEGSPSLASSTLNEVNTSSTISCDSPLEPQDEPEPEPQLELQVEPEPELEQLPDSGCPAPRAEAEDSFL

FGFR4 = FGFR4 (Homo sapiens, UniProt P22455); test: as above; settings: read-out: FGFR4 IC50; ATP at apparent Km
ROCK2 = ROCK2 (Homo sapiens, UniProt O75116); test: as above
Sequence of ROCK2 (O75116 whole entry): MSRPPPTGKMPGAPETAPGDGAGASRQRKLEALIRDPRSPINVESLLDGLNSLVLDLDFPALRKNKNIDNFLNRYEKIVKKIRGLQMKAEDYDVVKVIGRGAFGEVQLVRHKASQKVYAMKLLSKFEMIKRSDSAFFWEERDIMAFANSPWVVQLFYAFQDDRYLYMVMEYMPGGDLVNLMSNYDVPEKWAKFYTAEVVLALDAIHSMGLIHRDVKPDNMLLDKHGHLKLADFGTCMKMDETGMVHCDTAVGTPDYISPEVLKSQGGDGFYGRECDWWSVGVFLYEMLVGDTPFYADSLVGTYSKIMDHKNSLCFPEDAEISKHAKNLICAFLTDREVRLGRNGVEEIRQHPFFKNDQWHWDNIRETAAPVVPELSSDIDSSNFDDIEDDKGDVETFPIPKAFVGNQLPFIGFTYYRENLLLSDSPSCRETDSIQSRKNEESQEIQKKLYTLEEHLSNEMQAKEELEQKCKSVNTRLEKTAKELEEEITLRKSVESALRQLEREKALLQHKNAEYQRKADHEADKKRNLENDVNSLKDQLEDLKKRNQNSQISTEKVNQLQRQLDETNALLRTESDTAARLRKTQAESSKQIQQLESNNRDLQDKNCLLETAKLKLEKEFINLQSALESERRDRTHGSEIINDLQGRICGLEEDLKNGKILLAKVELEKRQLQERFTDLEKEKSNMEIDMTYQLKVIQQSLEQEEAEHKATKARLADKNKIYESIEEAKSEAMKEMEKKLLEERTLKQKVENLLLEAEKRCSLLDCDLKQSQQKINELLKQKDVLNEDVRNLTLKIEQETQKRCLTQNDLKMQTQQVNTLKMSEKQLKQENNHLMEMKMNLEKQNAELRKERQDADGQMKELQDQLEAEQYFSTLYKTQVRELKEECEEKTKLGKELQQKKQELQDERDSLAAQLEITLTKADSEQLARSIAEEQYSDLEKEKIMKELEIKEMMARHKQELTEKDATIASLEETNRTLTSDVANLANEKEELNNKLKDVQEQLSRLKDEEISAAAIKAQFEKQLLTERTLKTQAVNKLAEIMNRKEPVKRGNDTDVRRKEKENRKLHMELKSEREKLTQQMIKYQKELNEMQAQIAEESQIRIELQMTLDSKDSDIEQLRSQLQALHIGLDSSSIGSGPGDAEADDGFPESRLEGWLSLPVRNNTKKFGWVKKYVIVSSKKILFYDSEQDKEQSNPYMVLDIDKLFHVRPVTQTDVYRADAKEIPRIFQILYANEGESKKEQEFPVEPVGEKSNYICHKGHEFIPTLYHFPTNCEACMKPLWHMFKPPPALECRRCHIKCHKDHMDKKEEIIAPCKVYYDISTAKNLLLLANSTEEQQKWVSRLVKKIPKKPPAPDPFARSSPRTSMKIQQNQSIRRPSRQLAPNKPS

Py2T cells = test: High-content microscopy EMT assay in TGFβ-treated Py2T breast cancer cells; type: cell-based, murine; settings: for Emax: read-out: Emax (maximal effect on cell count)
ROCK = ROCK cellular assay (MLC Thr18/Ser19 phosphorylation ELISA in A7r5 cells); type: cell-based, rat; settings: 90 min compound
ROCK1 = ROCK1 (Homo sapiens, UniProt Q13464); test: Biochemical kinase profiling (33PanQinase radiometric assay)
[1] = NMuMG, TGFβ1 2 ng/ml plus compound, 4 days, parameter decreased by 50%, read-out: FA IC50 (focal adhesion formation)
[2] = NMuMG, TGFβ1 2 ng/ml plus compound, 4 days, parameter decreased by 50%, read-out: FN IC50 (fibronectin patch formation)
[3] = NMuMG, TGFβ1 2 ng/ml plus compound, 4 days, parameter decreased by 50%, read-out: SF IC50 (stress fibers)
[4] = NMuMG, cell count decreased by 50% compared to DMSO control, read-out: Tox IC50
[5] = NMuMG, cell count increased by 50% compared to 100% with 10 μM SB-431542, read-out: CCI IC50 (cell count increase)
[6] = Mus musculus, 96 h, Py2T, TGFβ plus compound, 4 days, read-out: FA IC50 (focal adhesions)
[7] = Mus musculus, 96 h, Py2T, TGFβ plus compound, 4 days, read-out: FN IC50 (fibronectin patches)
[8] = Mus musculus, 96 h, Py2T, TGFβ plus compound, 4 days, read-out: SF IC50 (stress fibers)
[9] = Mus musculus, Py2T, cell count decreased by 50% compared to DMSO control, read-out: Tox IC50
[10] = Mus musculus, read-out: CCI IC50 (cell count increase)
[11] = Mus musculus, 96 h, NMuMG, TGFβ1 2 ng/ml plus compound, 4 days, parameter decreased by 50%, read-out: FA IC50 (focal adhesion formation)
[12] = Mus musculus, 96 h, NMuMG, TGFβ1 2 ng/ml plus compound, 4 days, parameter decreased by 50%, read-out: FN IC50 (fibronectin patch formation)
[13] = Mus musculus, 96 h, NMuMG, TGFβ1 2 ng/ml plus compound, 4 days, parameter decreased by 50%, read-out: SF IC50 (stress fibers)
[14] = Mus musculus, NMuMG, cell count decreased by 50% compared to DMSO control, read-out: Tox IC50
[15] = Mus musculus, NMuMG, mean of IC50 values obtained for FA, SF, FN, read-out: EMT (FA/SF/FN) combined IC50

SMILES | IC50 (ROCK2) [nM] | IC50 (Py2T cells; [6]) [nM] | IC50 (Py2T cells; [7]) [nM] | IC50 (Py2T cells; [8]) [nM] | IC50 (Py2T cells; [10]) [nM] | IC50 (NMuMG cells; [11]) [nM] | IC50 (NMuMG cells; [1]) [nM] | IC50 (NMuMG cells; [2]) [nM] | IC50 (NMuMG cells; [3]) [nM] | IC50 (NMuMG cells; [4]) [nM] | IC50 (NMuMG cells; [5]) [nM] | Emax (maximal effect on cell count) (NMuMG cells; NMuMG) [%] | IC50 (TGFBR2) [nM] | IC50 (TGFBR1) [nM] | IC50 (FGFR2) [nM] | IC50 (PDGFRA) [nM] | IC50 (PDGFRB) [nM] | IC50 (ROCK) [nM] | IC50 (Py2T cells; [9]) [nM] | Emax (Py2T cells; Mus musculus) [%] | also measured
Cc1ccc(-c2nn(C(C)(C)C)c3ncnc(N)c23)cc1 [PP1] | – | – | – | – | – | – | 910 | 1520 | 1140 | 11400 | 374 | 22.3 | 1310 | 297 | 456 | 3690 | 132 | – | – | – | IC50 (NMuMG cells; NMuMG, mean of IC50 values obtained for FA, SF, FN, read-out: EMT (FA/SF/FN) combined IC50): 1190 nM; IC50 (FGFR4): 622 nM
NC(=O)c1ccc(NC(=O)NCc2cccc(C(=O)Nc3ccc4c(c3)CNCC4)c2)cc1 [CAY10622] | – | – | – | – | – | – | – | – | – | – | – | – | – | – | – | – | – | > 10000 | – | – | IC50 (ROCK2; read-out: ROCK2 IC50, ATP at apparent Km): 17.8 nM; IC50 (Py2T cells; Py2T, TGFβ plus compound, 4 days, read-out: FA IC50 (focal adhesions)): > 25000 nM; IC50 (Py2T cells; Py2T, TGFβ plus compound, 4 days, read-out: FN IC50 (fibronectin patches)): > 25000 nM; IC50 (Py2T cells; Py2T, TGFβ plus compound, 4 days, read-out: SF IC50 (stress fibers)): > 25000 nM; IC50 (Py2T cells; Py2T, cell count decreased by 50% compared to DMSO control, read-out: Tox IC50): > 25000 nM; IC50 (Py2T cells; Py2T, compared to 10 μM SB-431542, read-out: CCI IC50 (cell count increase)): > 25000 nM; Emax (maximal effect on cell count) (Py2T cells; Py2T, compared to reference 10 μM SB-431542 = 100%): 18.4%; IC50 (ROCK1; read-out: ROCK1 IC50, ATP at apparent Km): 54 nM
Cc1[nH]c(/C=C2\C(=O)Nc3ccccc32)c(C)c1CCC(=O)O [TSU-68] | – | – | – | – | – | – | > 10000 | > 10000 | > 10000 | > 10000 | > 10000 | 1.7 | > 10000 | > 10000 | 590 | 78.2 | 103 | > 10000 | – | – | –

Second part, led by results:

IC50 (ROCK2) [nM] | IC50 (Py2T cells; [6]) [nM] | IC50 (Py2T cells; [7]) [nM] | IC50 (Py2T cells; [8]) [nM] | IC50 (Py2T cells; [10]) [nM] | IC50 (NMuMG cells; [11]) [nM] | SMILES | IC50 (NMuMG cells; [1]) [nM] | IC50 (NMuMG cells; [2]) [nM] | IC50 (NMuMG cells; [3]) [nM] | IC50 (NMuMG cells; [4]) [nM] | IC50 (NMuMG cells; [5]) [nM] | Emax (maximal effect on cell count) (NMuMG cells; NMuMG) [%] | IC50 (TGFBR2) [nM] | IC50 (TGFBR1) [nM] | IC50 (FGFR2) [nM] | IC50 (PDGFRA) [nM] | IC50 (PDGFRB) [nM] | IC50 (ROCK) [nM] | IC50 (Py2T cells; [9]) [nM] | Emax (Py2T cells; Mus musculus) [%] | also measured
55.3 | 245 | 192 | 105 | 51.8 | 127 | CC1=C(C(=O)Nc2cc3cn[nH]c3cc2F)C(c2ccc(C(F)(F)F)cc2)CC(=O)N1 (stereo not shown) [GSK429286A] | – | – | – | – | – | – | – | – | – | – | – | – | 20300 | 47.5 | IC50 (ROCK; Rattus norvegicus, 1.5 h): 29 nM; IC50 (NMuMG cells; [12]): 264 nM; IC50 (NMuMG cells; [13]): 82 nM; IC50 (NMuMG cells; [14]): > 25000 nM; IC50 (NMuMG cells; [15]): 158 nM; IC50 (NMuMG cells; [10]): 142 nM; Emax (NMuMG cells; Mus musculus): 33.2%; IC50 (ROCK1): 46.7 nM
76 | 415 | 521 | 89 | 15 | 160 | CN(C)CCOc1cc(-c2cn[nH]c2)ccc1NC(=O)C1COc2ccccc2O1 (stereo not shown) [SR-3677] | – | – | – | – | – | – | – | – | – | – | – | – | 6810 | 51 | IC50 (NMuMG cells; [12]): 179 nM; IC50 (NMuMG cells; [13]): 31 nM; IC50 (NMuMG cells; [14]): > 25000 nM; IC50 (NMuMG cells; [15]): 123 nM; IC50 (NMuMG cells; [10]): 50.6 nM; Emax (NMuMG cells; Mus musculus): 34.7%
